Laboratory results reported in ChEMBL document CHEMBL5120922, “Discovery, Optimization, and Evaluation of Potent and Selective PI3Kδ-γ Dual Inhibitors for the Treatment of B-cell Malignancies” (J Med Chem, 2022).

Tests used:
[1] = target: Phosphatidylinositol 4,5-bisphosphate 3-kinase catalytic subunit beta isoform (Homo sapiens, UniProt P42338); assay: Inhibition of N-terminal His6-tagged recombinant full length human PI3Kbeta expressed in baculovirus infected Sf21 insect cells at 1 uM by HTRF assay relative to control
Sequence of Phosphatidylinositol 4,5-bisphosphate 3-kinase catalytic subunit beta isoform (P42338 whole entry, looked up, canonical isoform): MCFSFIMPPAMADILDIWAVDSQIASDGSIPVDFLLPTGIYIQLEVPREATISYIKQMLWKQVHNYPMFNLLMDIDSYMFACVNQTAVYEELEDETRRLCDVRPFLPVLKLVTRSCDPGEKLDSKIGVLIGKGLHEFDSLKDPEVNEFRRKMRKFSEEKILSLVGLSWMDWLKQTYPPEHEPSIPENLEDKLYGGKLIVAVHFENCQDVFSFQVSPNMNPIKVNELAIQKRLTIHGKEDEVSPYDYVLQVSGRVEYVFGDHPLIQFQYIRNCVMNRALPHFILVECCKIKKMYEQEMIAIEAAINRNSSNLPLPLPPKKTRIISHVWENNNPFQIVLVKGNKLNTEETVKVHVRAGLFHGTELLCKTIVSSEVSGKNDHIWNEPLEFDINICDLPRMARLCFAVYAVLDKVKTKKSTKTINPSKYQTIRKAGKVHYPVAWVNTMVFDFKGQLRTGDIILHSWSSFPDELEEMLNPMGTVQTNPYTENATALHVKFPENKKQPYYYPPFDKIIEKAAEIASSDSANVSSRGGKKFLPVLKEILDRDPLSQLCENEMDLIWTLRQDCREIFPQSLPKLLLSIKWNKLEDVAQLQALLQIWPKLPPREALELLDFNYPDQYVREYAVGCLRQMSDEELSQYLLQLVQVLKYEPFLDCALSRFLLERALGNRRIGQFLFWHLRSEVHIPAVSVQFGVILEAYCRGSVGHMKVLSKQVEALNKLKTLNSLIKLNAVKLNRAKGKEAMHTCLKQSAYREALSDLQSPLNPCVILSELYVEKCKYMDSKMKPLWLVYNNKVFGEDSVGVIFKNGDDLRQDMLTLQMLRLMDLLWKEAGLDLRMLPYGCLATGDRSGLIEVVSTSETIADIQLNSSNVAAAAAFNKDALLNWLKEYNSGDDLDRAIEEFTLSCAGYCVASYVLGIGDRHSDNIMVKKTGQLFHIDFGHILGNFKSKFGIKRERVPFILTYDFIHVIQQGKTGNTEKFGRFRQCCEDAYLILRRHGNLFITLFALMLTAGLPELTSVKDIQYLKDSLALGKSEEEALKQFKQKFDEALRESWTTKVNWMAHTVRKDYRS

[2] = test system: SUD4; assay: Antiproliferative activity against human SU-DHL-4 cells assessed as cell growth inhibition measured after 72 hrs by MTT assay; assay type: functional, cell-based; conditions: SU-DHL-4, 72 h
[3] = test system: DOHH-2; assay: Antiproliferative activity against human DOHH-2 cells assessed as cell growth inhibition measured after 72 hrs by MTT assay; assay type: functional, cell-based; conditions: DOHH-2, 72 h
[4] = target: T1, Phosphatidylinositol 4,5-bisphosphate 3-kinase catalytic subunit delta isoform (Homo sapiens) (UniProt O00329); assay: Inhibition of N-terminal His6-tagged recombinant full length human PI3Kdelta expressed in baculovirus infected Sf21 insect cells at 0.1 uM by HTRF assay relative to control
T1 sequence (whole entry): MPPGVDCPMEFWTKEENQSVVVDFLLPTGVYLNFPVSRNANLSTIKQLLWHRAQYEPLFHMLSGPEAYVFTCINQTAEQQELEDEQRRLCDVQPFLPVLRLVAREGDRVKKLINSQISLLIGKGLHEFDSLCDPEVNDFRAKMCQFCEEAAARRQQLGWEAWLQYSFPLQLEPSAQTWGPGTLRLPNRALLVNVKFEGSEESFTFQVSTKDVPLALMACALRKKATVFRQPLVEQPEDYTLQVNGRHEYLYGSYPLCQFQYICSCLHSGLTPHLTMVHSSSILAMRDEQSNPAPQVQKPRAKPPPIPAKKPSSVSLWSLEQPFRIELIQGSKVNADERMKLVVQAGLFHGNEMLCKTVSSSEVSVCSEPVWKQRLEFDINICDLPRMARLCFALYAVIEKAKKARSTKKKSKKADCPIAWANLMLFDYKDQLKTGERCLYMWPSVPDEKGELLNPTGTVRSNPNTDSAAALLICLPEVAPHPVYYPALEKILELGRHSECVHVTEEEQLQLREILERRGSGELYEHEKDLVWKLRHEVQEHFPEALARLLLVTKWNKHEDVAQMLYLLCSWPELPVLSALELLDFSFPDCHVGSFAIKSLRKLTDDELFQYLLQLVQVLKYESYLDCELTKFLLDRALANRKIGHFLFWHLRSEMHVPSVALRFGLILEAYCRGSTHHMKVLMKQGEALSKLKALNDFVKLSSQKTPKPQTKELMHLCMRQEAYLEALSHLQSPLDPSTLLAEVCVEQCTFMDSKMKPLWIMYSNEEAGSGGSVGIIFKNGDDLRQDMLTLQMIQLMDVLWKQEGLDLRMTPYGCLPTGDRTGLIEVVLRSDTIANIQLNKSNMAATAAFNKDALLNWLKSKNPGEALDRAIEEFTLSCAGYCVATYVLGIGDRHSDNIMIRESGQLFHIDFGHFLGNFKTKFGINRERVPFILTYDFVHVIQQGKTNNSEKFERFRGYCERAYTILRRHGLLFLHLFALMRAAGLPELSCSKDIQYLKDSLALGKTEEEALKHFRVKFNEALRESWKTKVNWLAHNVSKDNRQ

[5] = target: T2, Phosphatidylinositol 4,5-bisphosphate 3-kinase catalytic subunit gamma isoform (Homo sapiens, UniProt P48736); assay: Inhibition of N-terminal His6-tagged recombinant full length human PI3Kgamma expressed in baculovirus infected Sf21 insect cells at 0.1 uM by HTRF assay relative to control
T2 sequence (P48736 whole entry, looked up, canonical isoform): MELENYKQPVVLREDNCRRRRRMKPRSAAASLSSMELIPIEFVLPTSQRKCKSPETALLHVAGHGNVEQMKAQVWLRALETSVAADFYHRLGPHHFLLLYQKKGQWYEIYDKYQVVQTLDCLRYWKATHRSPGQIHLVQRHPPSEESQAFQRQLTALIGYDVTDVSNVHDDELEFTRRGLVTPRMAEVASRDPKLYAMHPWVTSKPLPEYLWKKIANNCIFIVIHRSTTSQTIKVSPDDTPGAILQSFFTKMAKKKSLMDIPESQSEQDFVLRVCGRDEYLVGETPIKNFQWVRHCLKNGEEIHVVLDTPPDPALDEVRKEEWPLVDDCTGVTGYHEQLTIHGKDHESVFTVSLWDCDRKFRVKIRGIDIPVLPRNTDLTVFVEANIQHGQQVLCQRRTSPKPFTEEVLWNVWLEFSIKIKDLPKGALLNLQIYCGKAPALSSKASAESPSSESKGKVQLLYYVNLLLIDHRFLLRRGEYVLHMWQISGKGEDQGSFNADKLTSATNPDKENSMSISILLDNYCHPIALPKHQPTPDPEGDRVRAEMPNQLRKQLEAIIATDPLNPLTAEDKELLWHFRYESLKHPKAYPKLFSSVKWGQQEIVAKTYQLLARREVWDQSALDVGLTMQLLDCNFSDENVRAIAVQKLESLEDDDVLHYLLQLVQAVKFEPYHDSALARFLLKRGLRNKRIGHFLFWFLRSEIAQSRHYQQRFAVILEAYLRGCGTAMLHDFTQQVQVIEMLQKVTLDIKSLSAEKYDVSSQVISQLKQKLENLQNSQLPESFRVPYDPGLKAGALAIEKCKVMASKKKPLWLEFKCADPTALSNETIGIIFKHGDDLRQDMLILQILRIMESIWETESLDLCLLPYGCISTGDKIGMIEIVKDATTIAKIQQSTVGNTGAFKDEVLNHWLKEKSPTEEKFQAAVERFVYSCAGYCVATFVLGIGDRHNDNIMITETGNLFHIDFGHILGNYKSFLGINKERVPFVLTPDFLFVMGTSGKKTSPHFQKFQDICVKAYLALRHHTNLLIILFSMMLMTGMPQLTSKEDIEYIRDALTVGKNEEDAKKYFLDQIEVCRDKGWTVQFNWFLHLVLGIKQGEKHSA

[6] = target: Phosphatidylinositol 4,5-bisphosphate 3-kinase catalytic subunit alpha isoform (Homo sapiens, UniProt P42336); assay: Inhibition of N-terminal His6-tagged recombinant full length human PI3Kalpha expressed in baculovirus infected Sf21 insect cells at 1 uM by HTRF assay relative to control
Sequence of Phosphatidylinositol 4,5-bisphosphate 3-kinase catalytic subunit alpha isoform (P42336 whole entry, canonical isoform): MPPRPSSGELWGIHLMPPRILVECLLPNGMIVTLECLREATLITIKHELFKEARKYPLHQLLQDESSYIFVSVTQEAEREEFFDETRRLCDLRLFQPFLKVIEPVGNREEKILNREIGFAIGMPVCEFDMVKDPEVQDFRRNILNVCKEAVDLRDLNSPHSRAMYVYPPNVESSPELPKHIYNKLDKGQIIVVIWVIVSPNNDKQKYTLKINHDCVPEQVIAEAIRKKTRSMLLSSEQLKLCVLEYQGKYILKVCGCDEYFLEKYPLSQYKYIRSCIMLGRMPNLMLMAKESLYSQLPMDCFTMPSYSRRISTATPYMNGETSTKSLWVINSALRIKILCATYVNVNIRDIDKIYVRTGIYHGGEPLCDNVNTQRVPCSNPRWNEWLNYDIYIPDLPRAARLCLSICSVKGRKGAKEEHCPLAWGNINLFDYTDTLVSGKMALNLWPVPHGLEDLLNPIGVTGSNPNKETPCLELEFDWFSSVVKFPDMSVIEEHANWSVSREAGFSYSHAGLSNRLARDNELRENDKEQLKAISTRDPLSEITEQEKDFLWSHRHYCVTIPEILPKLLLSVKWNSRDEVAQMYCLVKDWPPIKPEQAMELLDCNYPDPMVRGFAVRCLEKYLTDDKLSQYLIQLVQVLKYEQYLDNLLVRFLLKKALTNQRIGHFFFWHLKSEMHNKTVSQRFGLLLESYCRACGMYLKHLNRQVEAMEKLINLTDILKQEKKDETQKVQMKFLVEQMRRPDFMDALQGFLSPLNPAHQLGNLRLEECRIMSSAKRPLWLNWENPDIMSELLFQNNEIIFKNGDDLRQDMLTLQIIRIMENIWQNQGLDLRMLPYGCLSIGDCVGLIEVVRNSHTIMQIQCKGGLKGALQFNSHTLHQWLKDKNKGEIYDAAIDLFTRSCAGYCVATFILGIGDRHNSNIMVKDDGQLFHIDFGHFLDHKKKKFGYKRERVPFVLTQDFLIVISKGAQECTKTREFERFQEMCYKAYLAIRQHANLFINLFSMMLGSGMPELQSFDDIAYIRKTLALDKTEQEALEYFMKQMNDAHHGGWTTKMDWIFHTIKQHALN

[7] = test system: SU-DHL-6; assay: Antiproliferative activity against human SU-DHL-6 cells assessed as cell growth inhibition measured after 72 hrs by MTT assay; assay type: functional, cell-based; conditions: SU-DHL-6, 72 h
[8] = target: T2, Phosphatidylinositol 4,5-bisphosphate 3-kinase catalytic subunit gamma isoform; assay: Inhibition of N-terminal His6-tagged recombinant full length human PI3Kgamma expressed in baculovirus infected Sf21 insect cells at 1 uM by HTRF assay relative to control
[9] = target: T1, Phosphatidylinositol 4,5-bisphosphate 3-kinase catalytic subunit delta isoform (Homo sapiens); assay: Inhibition of N-terminal His6-tagged recombinant full length human PI3Kdelta expressed in baculovirus infected Sf21 insect cells at 1 uM by HTRF assay relative to control

inhibition [1] | inhibition [4] | inhibition [5] | inhibition [6] | IC50 [7] | inhibition [8] | inhibition [9] | SMILES | IC50 [2] | IC50 [3]
84% | 74% | 88% | 82% | 1800 nM | 41% | 37% | C[C@H]1CC[C@@H](c2nc3cccc(Cl)c3c(=O)n2-c2ccccc2)N1c1nc(N)nc2[nH]ccc12 | 4930 nM | 3590 nM
84% | 34% | 85% | 79% | 2750 nM | 49% | 18% | N#Cc1c(N)nc(N)nc1N1[C@H](c2nc3cccc(Cl)c3c(=O)n2-c2cc(F)cc(F)c2)C[C@@H]2CCCC[C@@H]21 | 1830 nM | 3540 nM
57% | 5% | 1% | 58% | 480 nM | – | -4% | C[C@H]1CC[C@@H](c2nc3cccc(Cl)c3c(=O)n2-c2cccc(F)c2)N1c1nc(N)nc2[nH]cnc12 | 350 nM | 2610 nM
106% | 88% | 99% | 78% | 1840 nM | 100% | 11% | C[C@H]1CC[C@@H](c2nc3cccc(Cl)c3c(=O)n2-c2ccccc2)N1c1ccnc(N)n1 | 1200 nM | 3970 nM
43% | 4% | 14% | 66% | 580 nM | -8% | 1% | C[C@H]1CC[C@@H](c2nc3cccc(Cl)c3c(=O)n2-c2cc(F)cc(F)c2)N1c1nc(N)nc(N)c1C#N | 360 nM | 1170 nM
44% | 7% | 70% | 39% | 1710 nM | – | – | C[C@H]1CC[C@@H](c2nc3cc(F)ccc3c(=O)n2-c2cccnc2)N1c1nc(N)nc(N)c1C#N | 580 nM | 570 nM
42% | 9% | 35% | 16% | 670 nM | – | – | COc1cccc(C#Cc2cccc3nc([C@@H]4CC[C@H](C)N4c4nc(N)nc(N)c4C#N)n(-c4ccccc4)c(=O)c23)c1 | 510 nM | 450 nM
98% | 43% | 91% | 63% | 2660 nM | – | – | C[C@H]1CC[C@@H](c2nc3ccc(F)cc3c(=O)n2-c2cccnc2)N1c1nc(N)nc(N)c1C#N | 1220 nM | 1890 nM
62% | 43% | 83% | 25% | 1040 nM | – | – | COc1ccc(C#Cc2cccc3nc([C@@H]4CC[C@H](C)N4c4nc(N)nc(N)c4C#N)n(-c4ccccc4)c(=O)c23)cc1 | 1050 nM | 3980 nM
78% | 62% | 65% | 23% | 2470 nM | – | – | Cc1ccccc1C#Cc1cccc2nc([C@@H]3CC[C@H](C)N3c3nc(N)nc(N)c3C#N)n(-c3ccccc3)c(=O)c12 | 3580 nM | 760 nM
78% | 56% | 80% | 35% | 1720 nM | – | – | Cc1ccc(C#Cc2cccc3nc([C@@H]4CC[C@H](C)N4c4nc(N)nc(N)c4C#N)n(-c4ccccc4)c(=O)c23)cc1 | 1230 nM | 680 nM
41% | 6% | 29% | 11% | 600 nM | – | – | C[C@H]1CC[C@@H](c2nc3cccc(C#Cc4ccccn4)c3c(=O)n2-c2ccccc2)N1c1nc(N)nc(N)c1C#N | 320 nM | 790 nM
-3% | -2% | 21% | 20% | 230 nM | – | – | Cc1cccc2nc([C@@H]3CC[C@H](C)N3c3nc(N)nc(N)c3C#N)n(-c3cccnc3)c(=O)c12 | 50 nM | 130 nM
